Test results reported in patent US3991193A, “Derivatives of 4(3H)-quinazolone, pharmaceutical compositions thereof and methods of use” (Roussel-UCLAF, priority 1973, dated 1976).
Where two headings read alike, the source gives them in different places.

Key:
mouse [1] = assay: Righting Reflex Test in Mouse; assay type: in vivo; conditions: for ED50: at time of peak activity, read-out: ED50 (dose producing loss of righting reflex in 50% of a group of mice)
Description: Groups of ten mice received the test compound orally or i.p. at various dose levels, a control group receiving vehicle alone. All mice were housed individually in glass beakers and were assessed for loss of righting reflex at 1/4, 1/2, 1, 2, 4 and 6 hours after dosing. […] From the results obtained a dose response line was constructed and the dose producing 50% loss of righting reflex was estimated for each observation time. This ED50 value (the dose producing loss of righting reflex in 50% of a group of mice) was quoted for the time of peak activity.

mouse [2] = assay: Rotating Drum Test in Mouse; assay type: in vivo; conditions: 0.5 h, 30 min. after dosing, 2 min. test period, read-out: ED50 (dose causing 50% of the mice to fall off the drum)
Description: Groups of ten mice received p.o. or i.p. the test compound at various dose levels, a control group receiving the vehicle alone by each route .30 min. after dosing each group of mice was placed on a 30 cm diameter rotating drum revolving at 1 revolution/minute. The mice were placed on the drum against its direction of movement and the number of mice falling off within a 2 min. test period was noted. From the results obtained a dose response line was constructed and the dose causing 50% of the mice to fall off the drum (ED50) was estimated.

mouse [3] = assay: Anticonvulsant Test Against Electroshock in Mouse; assay type: in vivo; conditions: 0.5 h, 30 min. after dosing, electroshock 55 mA, read-out: ED50 (dose protecting 50% of the mice from tonic extension of hind limbs)
Description: 3. Anticonvulsant Test Against Electroshock
Groups of ten mice received p.o. or i.p. the test compound at various dose levels, a control group received the vehicle alone. 30 min. after dosing, each group was then shocked via auricular electrodes using the electroshock apparatus (Ugo Basile ECT apparatus for small mammals) using the following parameters: […]
______________________________________
The number of mice which underwent tonic extension of hind limbs was noted. The dose protecting 50% of the mice (ED50) was estimated.

[4] = Acute Toxicity Tests in mouse; conditions: in vivo
Description: 1. The activity of 2-methyl-3-(o-cyanophenyl)-4(3H)-quinazolone hydrochloride was investigated in the mouse by the following 5 tests.
Acute toxicities by p.o and i.p. routes were conducted using groups of ten mice at various dose levels. Groups dosed p.o. and i.p. were assessed for mortality at 24 hours.
The activity of methaqualone (2-methyl-3-(o-tolyl)-4-quinazolone) was investigated under the same conditions by using the test procedures indicated in the five tests above.

rat [5] = assay: Righting Reflex Test in Rat; assay type: in vivo, Sprague-Dawley rat; conditions: for ED50: male Sprague-Dawley rat, read-out: ED50 (loss of righting reflex)
Description: Groups of ten male Sprague-Dawley rats received the test compound i.p. or p.o. at various doses. The animals dosed i.p. were assessed for loss of righting reflex immediately after dosing and those dosed p.o. were assessed at 1/4, 1/2, 1, 2, 4 and 6 hours after dosing.

[6] = Acute Toxicity Test in Rat; conditions: in vivo
Description: (§1) II. The activity of 2-methyl-3-(o-cyanophenyl)-4(3H)-quinazolone hydrochloride was also investigated in rat by the following tests.
(§2) Groups of ten rats were dosed p.o. or i.p. with various doses of the test compound and after 24 hours were assessed for mortality.
(§3) The activity of Methaqualone was investigated in the same conditions.

rat [7] = assay: Acute Toxicity Test in Rat
Description: as §1, §2, §3

mouse [8] = assay: Potentiation of Hexobarbitone Sleeping Time in Mouse; assay type: in vivo; conditions: i.p., Hexobarbitone Sodium 65 mg/kg i.v.
Description: 4. Potentiation of Hexobarbitone Sleeping Time
A group of eight control mice received a dose of 65 mg/kg Hexobarbitone Sodium i.v. and subsequent sleeping times were recorded. A time value equivalent to mean sleeping time plus two standard deviations was established as a cut-off point. Other groups of eight mice received in identical dose of Hexobarbitone Sodium and at half the means control sleeping time were given various doses of the test compound i.p. The number of mice in each group asleep at the cut-off was recorded. A dose response curve was constructed and the dose at which 50% of the mice remained asleep at this cut-off point (ED50) was estimated.

[9] = ip, i.p., assessed immediately after dosing
[10] = po, p.o., assessed 1/4 to 6 hours after dosing

| Structure (SMILES) | ED50 (mouse [1]; ip) | oral hypnotic effectiveness (mouse [1]; oral) | ED50 (mouse [1]; po) | ED50 (mouse [2]; ip, i.p.) | ED50 (mouse [2]; po, p.o.) | ED50 (mouse [3]; ip, i.p.) | ED50 (mouse [3]; po, p.o.) | LD50 at 24 h ([4]; ip) | LD50 at 24 h ([4]; po) | ED50 (rat [5]; [9]) | ED50 (rat [5]; [10]) | effectiveness compared with Methaqualone (rat [5]; rat) | LD50 at 24 h ([6]; ip) | LD50 at 24 h ([6]; po) | toxicity compared with Methaqualone (rat [7]) | ED50 (dose at which 50% of the mice remained asleep at the cut-off point) (mouse [8]) |
| --- | --- | --- | --- | --- | --- | --- | --- | --- | --- | --- | --- | --- | --- | --- | --- | --- |
| Cc1nc2ccccc2c(=O)n1-c1ccccc1C#N.Cl [2-methyl-3-(o-cyanophenyl)-4(3H)-quinazolone hydrochloride] | 47 mg/kg | very effective oral hypnotic in mouse | 112 mg/kg | 26.5 mg/kg | 23 mg/kg | 10 mg/kg | 9 mg/kg | 570 mg/kg | 1600 mg/kg | 28 mg/kg | 106 mg/kg | much more effective than Methaqualone in the rat | > 300 mg/kg | > 1000 mg/kg | less toxic |  |
| Cc1ccccc1-n1c(C)nc2ccccc2c1=O [Methaqualone, 2-methyl-3-(o-tolyl)-4-quinazolone, reference compound] | 81 mg/kg |  | 160 mg/kg | 30 mg/kg | 49 mg/kg | 21.5 mg/kg | 42 mg/kg | 550 mg/kg | 1700 mg/kg | 48 mg/kg | 170 mg/kg |  | 190 mg/kg | 440 mg/kg |  | 25 mg/kg |
